# Experimental data taken from patent US20190000789A1, “COMPOSITION AND METHOD FOR TREATING INFECTIONS CAUSED BY VANCOMYCIN-RESISTANT INFECTIOUS AGENTS IN A SUBJECT” (priority 2015, published 2019).
# Where two headings read alike, the source gives them in different places.
# Tests used:
# Format in all cases: cell-based, Streptomyces coelicolor
# [1] = system: S. coelicolor LAG2 (ddl suppressor mutant); test: MIC of vancomycin on MM agar plates with added D-Ala or L-Ala; details: Streptomyces coelicolor
# Method: VanS is the sensory kinase of a two-component system formed with VanR, and it has been shown previously that certain mutations in vanS will constitutively upregulate the vancomycin resistance cluster, explaining the viability of strain LAG2 in the absence of vancomycin.
# (§1) Escherichia coli strains JM109 (Sambrook et al., 1989) and ET12567 (Kieser et al., 2000) were used for routine cloning procedures and for extracting non-methylated DNA, respectively. Cells of E. coli were grown in Luria-Berani broth (LB) at 37° C. Streptomyces coelicolor A3(2) M145 was the parent of all mutants described in this work. All media and routine Streptomyces techniques were carried out as described (Kieser et al., 2000). SFM (soy flour mannitol) agar plates were used for propagating S. coelicolor strains and to prepare spore suspensions. For liquid-grown cultures, S. coelicolor mycelia were grown in normal minimal media with phosphate (NMMP) supplemented with 1% (w/v) mannitol as the sole carbon source. The MIC of vancomycin against S. coelicolor M145 and its mutant derivatives were determined by growth on minimal media (MM) agar plates supplemented with 1% mannitol as the sole carbon source, and 0, 2, 4, 8, 16, 32, 64, 128, 256 or 512 μg/ml vancomycin, in combination with 0, 1, 5, 10 or 50 mM of D-Ala or L-Ala. The vanX deletion mutants have been tested with 1, 5, 10, 50 and 100 μM D-Ala and L-Ala.
# [2] = system: S. coelicolor M145; test: as above; details: for MIC: Streptomyces coelicolor
# Method: The naturally vancomycin-resistant model organism S. coelicolor M145 was used as the initial test system. The strain was grown on solid minimal medium (MM) agar plates with increasing amounts of D-Ala and vancomycin. D-Ala was thereby added in concentrations of 5, 10 and 50 mM and the effect on the MIC of vancomycin assessed. As a first control, L-Ala was added and, as a second control, no amino acids were added. […] This was not altered when the culture media were supplemented with up to 50 mg/ml L-Ala (Table 1 and FIG. 6).
# as §1
# [3] = system: S. coelicolor M145 ΔvanX (LAG3); test: MIC of vancomycin on MM agar plates with added D-Ala; details: Streptomyces coelicolor
# From the text: VanX effectively eradicates the D-Ala-D-Ala dipeptide, thereby counteracting the accumulation of wild-type precursors and supporting vancomycin resistance (Lessard and Walsh, 1999; Tan et al., 2002). Therefore, a vanX null mutant was created using a similar strategy as for ddl, replacing the coding region of vanX by the apramycin resistance cassette aacC4. The mutant was created in both the parental strain S. coelicolor M145 and in its ddl suppressor mutant LAG2, generating LAG3 (M145 ΔvanX) and LAG4 (M145 Δddl ΔvanX vanS::IS466A), respectively.
# LAG4 produced 20% wt precursors prior to the addition of D-Ala.
# as §1
# [4] = system: S. coelicolor LAG1 (ddl null mutant); test: LC-MS analysis of peptidoglycan precursors; details: LAG1 grown in the presence of vancomycin
# Method: (§2) In order to get more insights into the synthesis of vancomycin-sensitive (i.e., wild-type) or the alternate vancomycin-resistant peptidoglycan, the pool of peptidoglycan precursors was analyzed by Liquid Chromatography coupled to Mass Spectrometry (LC-MS). When cells produce wild-type PG, only the MurNac-pentapeptide with a D-Ala-D-Ala terminus are detected, while vancomycin-resistant PG precursors have a D-Ala-D-Lac terminus. To analyze the precursors produced in S. coelicolor M145 and its mutant derivatives LAG1 (Δddl) and LAG2 (Δddl vanS::IS466A) in the presence or absence of vancomycin, the strains were grown until exponential phase, after which the cultures were harvested, washed and the precursors extracted with 5% TCA. The supernatants were desalted, concentrated and analyzed by LC-MS (see Materials and Methods section).
# (§3) For the precursor isolation and identification, a modification of the method described previously by Hong and colleagues (Hong et al., 2004) was used. 10 μg vancomycin was added to the strains at the moment of inoculation. The strains were grown in NMMP (1% (w/v) Mannitol, 50 mM MgCl2) until mid-log phase (OD-0.3-0.4) and mycelia were harvested by centrifugation at 4° C. and washed in 0.9% NaCl. […] The elution was monitored at 254 nm and monitored by the sizes eluted (1193.8-1195.3).
# [5] = system: S. coelicolor M145; test: LC-MS analysis of peptidoglycan precursors; details: M145 grown with 10 μg/ml vancomycin
# Method: as §2, §3
structure (smiles),measurement,setting,value
CN[C@H](CC(C)C)C(=O)N[C@H]1C(=O)N[C@@H](CC(N)=O)C(=O)N[C@H]2C(=O)N[C@H]3C(=O)N[C@H](C(=O)N[C@H](C(=O)O)c4cc(O)cc(O)c4-c4cc3ccc4O)[C@H](O)c3ccc(c(Cl)c3)Oc3cc2cc(c3O[C@@H]2O[C@H](CO)[C@@H](O)[C@H](O)[C@H]2O[C@H]2C[C@](C)(N)[C@H](O)[C@H](C)O2)Oc2ccc(cc2Cl)[C@H]1O [vancomycin],MIC,"[1]; LAG2, 0 mM D-Ala",128 µg/mL
same,MIC,"[1]; LAG2, 5 mM D-Ala",64 µg/mL
same,MIC,"[1]; LAG2, 10 mM D-Ala",32 µg/mL
same,MIC,"[1]; LAG2, 50 mM D-Ala",4 µg/mL
same,reduction of the MIC of vancomycin,"[2]; M145, 10 mM D-Ala",4 fold
same,reduction of the MIC of vancomycin,"[2]; M145, 50 mM D-Ala",32 fold
same,MIC,"[2]; M145, read-out: MIC of vancomycin, M145, 0 mM D-Ala",128 µg/mL
same,MIC,"[2]; M145, read-out: MIC of vancomycin, M145, 5 mM D-Ala",32 µg/mL
same,MIC,"[2]; M145, read-out: MIC of vancomycin, M145, 10 mM D-Ala",32 µg/mL
same,MIC,"[2]; M145, read-out: MIC of vancomycin, M145, 50 mM D-Ala",4 µg/mL
same,MIC,"[3]; read-out: MIC of vancomycin, M145 ΔvanX, 0 μM D-Ala",32 µg/mL
same,MIC,"[3]; read-out: MIC of vancomycin, M145 ΔvanX, 10 μM D-Ala",16 µg/mL
same,MIC,"[3]; read-out: MIC of vancomycin, M145 ΔvanX, 50 μM D-Ala",1 µg/mL
same,MIC,"[3]; read-out: MIC of vancomycin, M145 ΔvanX, 50 μg/ml D-Ala",1 µg/mL
same,MIC,"[3]; read-out: MIC of vancomycin, M145 ΔvanX, 100 μM D-Ala",1 µg/mL
same,precursors containing the terminal D-Ala-D-Lac dipeptide,[4],95.7%
same,precursors of the vancomycin-insensitive variant (D-Ala-D-Lac),[5],91.5%
